Data published in patent US10513513B2, “Salts of quinazoline derivative or crystals thereof, and the process for producing thereof” (Shionogi & Co., Ltd., priority 2015, dated 2019).
Where a name gives a salt, the structure may show the parent alone. Blank lines part the entries; values can stand above or below the compound they belong to.

Key:
Type in all cases: physicochemical
[1] = Stability test of crystals on heating (NMR before/after); settings: heated at 50° C. for 8 hours
Method: (Results of Stability Test)
The crystals of Compound (IIA) obtained in Example 21 were heated at 50° C. for 8 hours and measured NMR data.

[2] = Observation of hygroscopicity of isolated salt; settings: isolated solid
Method: Ethyl acetate (8 mL) was added to Compound 3 (4.12 g, 17.7 mmol), and the mixture was stirred. When 4 mol/L a solution (16 mL) of hydrochloric acid in ethyl acetate was added, white solids were precipitated. Ethyl acetate (8 mL) was added, and then the mixture was stirred for about 4 hours at room temperature.
Benzenesulfonic acid (78.57 mg) and tetrahydrofuran (0.2 mL) were stirred at 50° C., and a tetrahydrofuran (0.2 mL) solution of Compound 3 (51.54 mg, 0.222 mmol) was added dropwise. After about 20 minutes, cooling the mixture to room temperature caused solids to precipitate. Then, 0.15 mL of tetrahydrofuran was added, and the mixture was stirred at 50° C. for 10 minutes and cooled to 10° C.

[3] = Light exposure test (photostability); settings: for E isomer (Retention time 38 minutes), Light exposed sample: D65 lamp, total illuminance about 1.2 million lx·hr; for E isomer (Retention time 38 minutes), Light exposed sample / E isomer (Retention time 38 minutes), Dark control: HPLC Method B; for E isomer (Retention time 38 minutes), Increased amount: light exposed sample minus dark control
Excerpt: The photostability test is one of the methods for measuring chemical or physicochemical changes of an active pharmaceutical ingredient or a pharmaceutical preparation caused by light exposure to evaluate properties of a sample with respect to light. In the photostability test, a sample such as an active pharmaceutical ingredient or a pharmaceutical preparation is irradiated with light at a specified output for a certain period of time. Properties of the sample with respect to light can be evaluated by analyzing the impurities and analogous substances, crystal form, color difference, and the like of the sample by scientific techniques (such as high performance liquid chromatography, X-ray crystal diffraction, and colorimetry) when a specified total illuminance is reached. In order to verify that a specified amount of light exposure is attained, the amount of light exposure is managed using a radiometer or a luminometer, and a test is carried out using an actinometric system.
(Photostability Measurement)
A photostability test was performed using a photostability tester (model LTL200A5-15WCD) by Nagano Science. A D65 lamp was used as an irradiation source of light, and light was irradiated to a total illuminance of about 1.2 million 1×·hr under 4000 lx·hr conditions.
The quality evaluations of the respective crystals were carried out using HPLC (Method B).

[4] = Test of solubility in organic solvent; settings: stirred at 22° C. for 4 hours, supernatant, HPLC Method B; for Concentration (% by weight) in 2-Propanol: suspended in 2-propanol; for Concentration (% by weight) in Acetone: suspended in acetone; for Concentration (% by weight) in Ethyl acetate: suspended in ethyl acetate
Method: (Test of Solubility in Organic Solvent)
The monohydrochloride crystal Form I, monohydrochloride crystal Form V, and free base crystals of Compound (I) were each suspended in 2-propanol, acetone, and ethyl acetate, and stirred at 22° C. for 4 hours, and the concentrations of supernatants were measured (HPLC: Method B).

[5] = Moisture sorption-desorption isothermal measurement; settings: for Ratio of increased mass in moisture desorption isothermal measurement: ratio at 0% Target % P/P0 after desorption, 25° C.; for Ratio of increased mass (moisture sorption): mass increase at 95% Target % P/P0 relative to mass at 0% Target % P/P0, 25° C.
Excerpt: (Moisture Sorption-Desorption Isothermal Measurement)
Moisture sorption-desorption isothermal measurement is measuring the weight changes of a subject solid under various relative humidity conditions, and is a method for determining moisture sorption-desorption behaviors.
As a basic measurement method, the relative humidity is increased in increments of 5% or 10% based on the dry weight at 0% Target % P/P0 (relative humidity 0%), and after the weights at respective relative humidities are stabilized, the amount of adsorbed water can be obtained from the weight increased from a reference value. Similarly, it is possible to measure the amount of desorbed water by reducing the relative humidity in increments of 5% or 10% from 100% Target % P/P0.
Sorption and desorption isotherms can be obtained by plotting the weight change values at respective relative humidities. From the results, it is possible to investigate the sorption and desorption phenomena of attached moisture at respective humidities. Also, when anhydride crystals and hydrate crystals undergo mutual crystal transition due to humidity, it is possible to calculate the humidity, at which crystal transition occurs, and the amount of water of crystallization.
Since the sorption and desorption of attached water and water of crystallization are affected by the particle size, degree of crystallinity, crystal habit, and the like, the measurement results may slightly vary.
Moisture sorption-desorption isothermal measurement was performed on the crystals obtained in each Example. About 10 mg of a sample was weighed onto a sample pan, and measurement was performed. Measurement conditions are as shown below.
Device: DVS Advantage by Surface Measurement Systems Ltd.
Measurement points: from 0% Target % P/P0 to 95% Target % P/P0 in increments of 5%, then from 95% Target % P/P0 to 0% Target % P/P0 in decrements of 5% Temperature: 25° C. […]

[6] = Test of solubility in water for injection; settings: stirred at 37° C. for 1 hour, HPLC Method A
Method: (Test of Solubility in Water for Injection)
1. Preparation of Calibration Curve
First, 5 mg of monohydrochloride crystal Form I of Compound (I) was precisely weighed and dissolved in a mixed solution of acetonitrile:water (1:1), and thus a 500 μg/mL solution was obtained. The obtained solution was diluted with a mixed solution of acetonitrile:water (1:1) such that the concentrations of the compound were 5 and 50 μg/mL. Accordingly, a standard calibration curve was prepared according to HPLC measurement conditions (Method A). The same operation was carried out for monohydrochloride crystal Form II, monohydrochloride crystal Form V, monohydrochloride crystal Form VI, mono-p-toluenesulfonate crystal Form I, and free base crystals.
2. Preparation of Sample Solution
First, 1 mg of monohydrochloride crystal Form I of Compound (I) was precisely weighed and transferred to a vial having a volume of 4 mL. Then, 1 mL of water (water for injection) was added, and the mixture was stirred at 37° C. for 1 hour. After being stirred, this suspension was filtered, and the peak area was measured under HPLC measurement conditions (Method A) using a solution obtained by diluting the filtrate two-fold with a mixed solution of acetonitrile:water (1:1) as a sample. The concentration was calculated using the peak area and the calibration curve prepared above. The same operation was carried out for monohydrochloride crystal Form II, monohydrochloride crystal Form V, monohydrochloride crystal Form VI, mono-p-toluenesulfonate crystal Form I, and free base crystals.

[7] = listed as mono-p-toluenesulfonate crystal Form I
[8] = listed as Monohydrochloride form crystal VI
[9] = listed as Monohydrochloride form crystal V

SMILES: NOC[C@H]1COCCN1 [Compound (IIA)]
Stability of crystals on heating (change of NMR peaks) [1]: no changes to the peaks were observed

SMILES: NOC[C@H]1COCCN1 [Compound (II′)]
Hygroscopicity (observation) [2]: absorbed moisture and deliquesced

SMILES: NOC[C@H]1COCCN1 [Compound (II″)]
Hygroscopicity (observation) [2]: highly hygroscopic

SMILES: CC#C/C(=N\OC[C@H]1COCCN1)c1ccc2ncnc(Nc3ccc(OCc4cccc(F)c4)c(Cl)c3)c2c1 [Free base crystal]
E isomer (Retention time 38 minutes), Light exposed sample [3]: 2.59 area %
E isomer (Retention time 38 minutes), Increased amount [3]: 2.59 area %
Concentration (% by weight) in 2-Propanol [4]: 0.49 % by weight
Concentration (% by weight) in Acetone [4]: 8.1 % by weight
Concentration (% by weight) in Ethyl acetate [4]: 3.3 % by weight
Ratio of increased mass in moisture desorption isothermal measurement [5]: about 0.16%
Solubility in water for injection ([6]; listed as free base crystals): not dissolved in water for injection at all

SMILES: CC#C/C(=N\OC[C@H]1COCCN1)c1ccc2ncnc(Nc3ccc(OCc4cccc(F)c4)c(Cl)c3)c2c1 [Mono-p-toluenesulfonate crystal Form I]
E isomer (Retention time 38 minutes), Light exposed sample [3]: 32.86 area %
E isomer (Retention time 38 minutes), Dark control [3]: 0.10 area %
E isomer (Retention time 38 minutes), Increased amount [3]: 32.76 area %
E isomer (Retention time 38 minutes), Increased amount [3, 7]: about 33 area %
Ratio of increased mass (moisture sorption) [5]: small
Ratio of increased mass in moisture desorption isothermal measurement [5]: about 0.12%
Solubility in water for injection [6]: 26.6 µg/mL
Solubility in water for injection [6, 7]: high solubilities

SMILES: CC#C/C(=N\OC[C@H]1COCCN1)c1ccc2ncnc(Nc3ccc(OCc4cccc(F)c4)c(Cl)c3)c2c1 [Monohydrochloride crystal Form II]
E isomer (Retention time 38 minutes), Light exposed sample [3]: 1.21 area %
E isomer (Retention time 38 minutes), Dark control [3]: 1.44 area %
E isomer (Retention time 38 minutes), Increased amount [3]: −0.23 area %
Ratio of increased mass (moisture sorption) [5]: small
Ratio of increased mass in moisture desorption isothermal measurement [5]: about 0.05%
Solubility in water for injection [6]: 56.0 µg/mL
Solubility in water for injection ([6]; listed as monohydrochloride crystal Form II): high solubilities

Second part, the compound after the results:

E isomer (Retention time 38 minutes), Light exposed sample [3]: 4.41 area %
E isomer (Retention time 38 minutes), Dark control [3]: 0.63 area %
E isomer (Retention time 38 minutes), Increased amount [3]: 3.78 area %
Concentration (% by weight) in 2-Propanol [4]: 0.03 % by weight
Concentration (% by weight) in Acetone [4]: 0.08 % by weight
Concentration (% by weight) in Ethyl acetate [4]: 0.01 % by weight
Ratio of increased mass (moisture sorption) [5]: small
Ratio of increased mass in moisture desorption isothermal measurement [5]: about 0.08%
Solubility in water for injection [6]: 34.5 µg/mL
Solubility in water for injection ([6]; listed as monohydrochloride crystal Form I): high solubilities
SMILES: CC#C/C(=N\OC[C@H]1COCCN1)c1ccc2ncnc(Nc3ccc(OCc4cccc(F)c4)c(Cl)c3)c2c1 [Monohydrochloride crystal Form I]

E isomer (Retention time 38 minutes), Light exposed sample [3, 8]: 1.80 area %
E isomer (Retention time 38 minutes), Dark control [3, 8]: 1.16 area %
E isomer (Retention time 38 minutes), Increased amount [3, 8]: 0.64 area %
Ratio of increased mass (moisture sorption) [5]: small
Ratio of increased mass in moisture desorption isothermal measurement [5]: about 0.06%
Solubility in water for injection [6]: 12.9 µg/mL
Solubility in water for injection ([6]; listed as monohydrochloride crystal Form VI): high solubilities
SMILES: CC#C/C(=N\OC[C@H]1COCCN1)c1ccc2ncnc(Nc3ccc(OCc4cccc(F)c4)c(Cl)c3)c2c1 [Monohydrochloride crystal Form VI]

E isomer (Retention time 38 minutes), Light exposed sample [3, 9]: 1.19 area %
E isomer (Retention time 38 minutes), Dark control [3, 9]: 0.13 area %
E isomer (Retention time 38 minutes), Increased amount [3, 9]: 1.06 area %
Concentration (% by weight) in 2-Propanol [4]: 0.01 % by weight
Concentration (% by weight) in Acetone [4]: 0.02 % by weight
Concentration (% by weight) in Ethyl acetate [4]: 0.00 % by weight
Ratio of increased mass (moisture sorption) [5]: small
Ratio of increased mass in moisture desorption isothermal measurement [5]: about 0.05%
Solubility in water for injection [6]: 14.0 µg/mL
Solubility in water for injection ([6]; listed as monohydrochloride crystal Form V): high solubilities
SMILES: CC#C/C(=N\OC[C@H]1COCCN1)c1ccc2ncnc(Nc3ccc(OCc4cccc(F)c4)c(Cl)c3)c2c1 [Monohydrochloride crystal Form V]

Ratio of increased mass (moisture sorption) ([5]; listed as monosulfate crystals): about 3.3%
Ratio of increased mass in moisture desorption isothermal measurement [5]: about 0.13%
SMILES: CC#C/C(=N\OC[C@H]1COCCN1)c1ccc2ncnc(Nc3ccc(OCc4cccc(F)c4)c(Cl)c3)c2c1 [Monosulfate crystal]
